According to ChEMBL document CHEMBL1201862, “PubChem BioAssay data set” (2004):
“And” between values parts separate entries of the source, which are not always exact repeats. Equal entries are not always repeated. Structures can show the parent of a compound that is named as a salt.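 Step 1: Grow cells in 96-well plates. Step 2: Expose to compound for 48 hours at 5 concentrations. Step 3: Interpolate endpoints linearly; if unreached, use highest concentration. Here, GI50 denotes the concentration required for 50% inhibition of growth.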 The source made the active and inactive calls. Cut-off read from the data, not from the text of the source: active = GI50 up to about 1.1 µM and inactive = higher.

Tests used:
Experiment in all cases: inhibition of tumour cell growth, NCI panel, 48 h
786-0 = system: 786-0
A498 = system: A498
CCRF-CEM = system: CCRF-CEM
COLO 205 = system: COLO 205
DU-145 = system: DU-145
HCC 2998 = system: HCC 2998
HL-60 = system: HL-60
HOP-92 = system: HOP-92
Hs-578T = system: Hs-578T
IGROV-1 = system: IGROV-1
KM12 = system: KM12
Malme-3M = system: Malme-3M
NCI-H522 = system: NCI-H522
OVCAR-5 = system: OVCAR-5
OVCAR-8 = system: OVCAR-8
SF-268 = system: SF-268
SNB-19 = system: SNB-19
SW-620 = system: SW-620
U-251 = system: U-251
SNB-75 = system: SNB-75

| SMILES | GI50 (786-0) | GI50 (A498) | GI50 (CCRF-CEM) | GI50 (COLO 205) | GI50 (DU-145) | GI50 (HCC 2998) | GI50 (HL-60) | GI50 (HOP-92) | GI50 (Hs-578T) | GI50 (IGROV-1) | GI50 (KM12) | GI50 (Malme-3M) | GI50 (NCI-H522) | GI50 (OVCAR-5) | GI50 (OVCAR-8) | GI50 (SF-268) | GI50 (SNB-19) | GI50 (SW-620) | GI50 (U-251) | GI50 (SNB-75) |
| --- | --- | --- | --- | --- | --- | --- | --- | --- | --- | --- | --- | --- | --- | --- | --- | --- | --- | --- | --- | --- |
| COc1ccc(C2OC(c3ccncc3)=NN2C)cc1F (stereo not drawn) | > 100 µM (inactive) | > 100 µM (inactive) | > 100 µM (inactive) | > 100 µM (inactive) | > 100 µM (inactive) | > 100 µM (inactive) | > 100 µM (inactive) | > 100 µM (inactive) | > 100 µM (inactive) | > 100 µM (inactive) | > 100 µM (inactive) | > 100 µM (inactive) | > 100 µM (inactive) | > 100 µM (inactive) | > 100 µM (inactive) | > 100 µM (inactive) | > 100 µM (inactive) | > 100 µM (inactive) | > 100 µM (inactive) |  |
| Cc1ccc(N/C(Sc2ccccc2)=C(/C(Cl)=C(Cl)Cl)[N+](=O)[O-])c(C)c1 | 16.5 µM (inactive) | 21.8 µM (inactive) | 17.9 µM (inactive) | 20.9 µM (inactive) | 36.1 µM (inactive) | 17.7 µM (inactive) | 18.2 µM (inactive) | 14 µM (inactive) | 44.4 µM (inactive) | 19.5 µM (inactive) | 17.3 µM (inactive) | 17.5 µM (inactive) | 17.8 µM (inactive) | 17.8 µM (inactive) | 34.5 µM (inactive) | 14 µM (inactive) | 22.3 µM (inactive) | 19.7 µM (inactive) | 13.8 µM (inactive) |  |
| Cc1ccc(S(=O)(=O)N2CCN(CCO)CCN(S(=O)(=O)c3ccc(C)cc3)CCN(CCO)CC2)cc1 | 23.6 µM (inactive) | 24.7 µM (inactive) | 22.9 µM (inactive) | 15.3 µM (inactive) | 15 µM (inactive) | 15.4 µM (inactive) | 18 µM (inactive) | 21.5 µM (inactive) | 30.1 µM (inactive) | 21.5 µM (inactive) | 20.6 µM (inactive) |  | 18.7 µM (inactive) | 44.1 µM (inactive) | 28 µM (inactive) | 26.1 µM (inactive) | 37.8 µM (inactive) | 33.7 µM (inactive) | 25.4 µM (inactive) | 26.3 µM (inactive) |
| O=c1c2c3ccccc3[nH]c2c2cccc3c2n1CCC3 | 4.27 µM (inactive) | 20.7 µM (inactive) | 30.5 µM (inactive) | 54 µM (inactive) | > 100 µM (inactive) | 29.2 µM (inactive) |  | 40.2 µM (inactive) | 21.2 µM (inactive) | 84.5 µM (inactive) | 33.9 µM (inactive) | 22 µM (inactive) |  | 66.7 µM (inactive) | 50.9 µM (inactive) | 33 µM (inactive) | > 100 µM (inactive) | 43.3 µM (inactive) | 36.1 µM (inactive) | 50.4 µM (inactive) |
| Cc1cccc(/C=N/NC(=S)Nc2ccccc2)n1 | 2.27 µM (inactive) | 15.3 µM (inactive) |  | 2.75 µM (inactive) | 4.18 µM (inactive) | 5.64 µM (inactive) |  | 5.15 µM (inactive) | 20.1 µM (inactive) | 2.84 µM (inactive) | 4.72 µM (inactive) | 5.04 µM (inactive) | 1.48 µM (inactive) | 5.85 µM (inactive) | 2.43 µM (inactive) | 3.31 µM (inactive) | 11.9 µM (inactive) | 5.25 µM (inactive) | 4.32 µM (inactive) | 3.67 µM (inactive) |
| O=C1OC(c2ccccc2)=N/C1=C\c1cccc(F)c1 | 51.9 µM (inactive) | > 100 µM (inactive) | 35.7 µM (inactive) | > 100 µM (inactive) | > 100 µM (inactive) | 72.3 µM (inactive) | 24.9 µM (inactive) | > 100 µM (inactive) | 36.3 µM (inactive) | 52.5 µM (inactive) | 33.5 µM (inactive) |  | 16 µM (inactive) | > 100 µM (inactive) | 26.2 µM (inactive) | 34.5 µM (inactive) | 55 µM (inactive) | > 100 µM (inactive) | 38.1 µM (inactive) | 64.3 µM (inactive) |
| CC1(C)OC(=O)N(c2ccccc2)C12C=Cc1cccc([N+](=O)[O-])c1O2 (stereo not drawn) | > 100 µM (inactive) | 50.2 µM (inactive) | 37.3 µM (inactive) | 45.1 µM (inactive) | > 100 µM (inactive) | > 100 µM (inactive) | 17.5 µM (inactive) | > 100 µM (inactive) | 73.6 µM (inactive) | 96.6 µM (inactive) | 58.6 µM (inactive) |  | 36.5 µM (inactive) | > 100 µM (inactive) | 92.7 µM (inactive) | > 100 µM (inactive) | > 100 µM (inactive) | > 100 µM (inactive) | 65.9 µM (inactive) | 35.6 µM (inactive) |
| CC(C)(C)OC(=O)N1CCCC1=O | > 10 µM (inactive) | > 10 µM (inactive) | > 10 µM (inactive) |  | > 10 µM (inactive) | > 10 µM (inactive) | > 10 µM (inactive) | > 10 µM (inactive) | > 10 µM (inactive) | > 10 µM (inactive) | > 10 µM (inactive) | > 10 µM (inactive) |  | > 10 µM (inactive) | > 10 µM (inactive) | > 10 µM (inactive) | > 10 µM (inactive) | > 10 µM (inactive) | > 10 µM (inactive) | > 10 µM (inactive) |
| COc1ccc(C2=Cc3nc2c(-c2ccccc2)c2ccc([nH]2)c(-c2ccccc2)c2nc(c(-c4ccccc4)c4ccc([nH]4)c3-c3ccccc3)C=C2)cc1 | > 100 µM (inactive) | > 100 µM (inactive) | > 100 µM (inactive) | > 100 µM (inactive) | > 100 µM (inactive) | > 100 µM (inactive) | > 100 µM (inactive) | 35.2 µM (inactive) | > 100 µM (inactive) | > 100 µM (inactive) | > 100 µM (inactive) | > 100 µM (inactive) |  | > 100 µM (inactive) | > 100 µM (inactive) | 51.4 µM (inactive) | 48.2 µM (inactive) | > 100 µM (inactive) | 30.5 µM (inactive) | 25.2 µM (inactive) |
| CCCC[C@@H](C)/C=C1\CN2CCC[C@H]2[C@@](C)(OCc2ccccc2)[C@@H]1O | > 47.4 µM (inactive) | > 47.8 µM (inactive) | > 50 µM (inactive) | > 50 µM (inactive) | > 14.4 µM (inactive) | > 50 µM (inactive) |  | > 42 µM (inactive) | > 50 µM (inactive) | > 30.6 µM (inactive) | > 13.8 µM (inactive) | > 50 µM (inactive) | > 27.9 µM (inactive) | > 50 µM (inactive) | > 47.4 µM (inactive) | > 29.4 µM (inactive) | > 23.8 µM (inactive) | > 50 µM (inactive) | > 34.4 µM (inactive) | > 32.3 µM (inactive) |
| CN(C)CCOC1(Cc2ccc(F)cc2)CCC(C(C)(C)C)CC1 (stereo not drawn) | 4.92 µM (inactive) and 4.2 µM (inactive) | 12.6 µM (inactive) and 14.7 µM (inactive) | 3.19 µM (inactive) and 2.64 µM (inactive) | 2.03 µM (inactive) and 2.15 µM (inactive) | 9.2 µM (inactive) and 9.44 µM (inactive) | 2.96 µM (inactive) and 3.14 µM (inactive) | 2.84 µM (inactive) and 2.93 µM (inactive) | 12.2 µM (inactive) | 11.7 µM (inactive) and 14 µM (inactive) | 11.1 µM (inactive) and 11.5 µM (inactive) | 5.62 µM (inactive) and 5.02 µM (inactive) | 4.38 µM (inactive) and 2.84 µM (inactive) | 6.08 µM (inactive) and 10.7 µM (inactive) | 7.59 µM (inactive) and 7.85 µM (inactive) | 11.2 µM (inactive) and 12.8 µM (inactive) | 12.4 µM (inactive) and 12.9 µM (inactive) | 7.31 µM (inactive) and 11.9 µM (inactive) | 4.37 µM (inactive) and 7.36 µM (inactive) | 5.28 µM (inactive) and 6.25 µM (inactive) |  |
| O=C1c2ccccc2-n2c1nc1ccc([N+](=O)[O-])cc1c2=O | 46.5 µM (inactive) | 5.62 µM (inactive) | 34.8 µM (inactive) | > 100 µM (inactive) | > 100 µM (inactive) | > 100 µM (inactive) | 13.9 µM (inactive) | > 100 µM (inactive) | > 100 µM (inactive) | 53.7 µM (inactive) | 68.9 µM (inactive) | 51.5 µM (inactive) | 82.6 µM (inactive) | > 100 µM (inactive) | 21.3 µM (inactive) | 26.4 µM (inactive) | > 100 µM (inactive) | 45.1 µM (inactive) | > 100 µM (inactive) |  |
| NC(=O)C1=C(c2ccccc2)c2ccccc2C1=O | 15.7 µM (inactive) | 28 µM (inactive) | 2.75 µM (inactive) | 22 µM (inactive) | 17.1 µM (inactive) | 15.8 µM (inactive) | 3.57 µM (inactive) | 17.7 µM (inactive) | 24.8 µM (inactive) | 16.1 µM (inactive) | 16.1 µM (inactive) |  | 18.6 µM (inactive) | 18.6 µM (inactive) | 15.6 µM (inactive) | 17.8 µM (inactive) | 17.7 µM (inactive) | 25.1 µM (inactive) | 18.3 µM (inactive) | 19.7 µM (inactive) |
| CC[C@]12CN3CCc4c([nH]c5ccccc45)[C@@](C(=O)OC)(c4cc5c(cc4OC)N(C)[C@H]4[C@@](O)(C(=O)OC)[C@H](OC(C)=O)[C@]6(CC)C=CCN7CC[C@]54[C@@H]76)CC(C3)[C@H]1O2 (stereo partly drawn) [VINLEUROSINE SULFATE] | < 0.01 µM (active) | 0.863 µM (active) | < 0.019 µM (active) | < 0.01 µM (active) | < 0.01 µM (active) | < 0.01 µM (active) | < 0.01 µM (active) | 8.13 µM (inactive) | 0.108 µM (active) | 0.441 µM (active) | < 0.0276 µM (active) |  | < 0.01 µM (active) | 0.804 µM (active) | 0.449 µM (active) | 1.02 µM (active) | 0.0553 µM (active) | < 0.0208 µM (active) | < 0.0179 µM (active) | 0.0716 µM (active) |
